In ChEMBL document CHEMBL1641495, “8-Aza-7,9-dideazaxanthine acyclic nucleoside phosphonate inhibitors of thymidine phosphorylase” (Bioorg Med Chem Lett, 2011):
pIC50: −log10 of the molar value.

Assays:
[1] = molecular target: Thymidine phosphorylase (Escherichia coli K-12) (UniProt P07650); assay: Inhibition of [3H]methylthymidine binding to Escherichia coli thymidine phosphorylase at 100 uM after 20 mins by scintillation counting
[2] = molecular target: Thymidine phosphorylase (Escherichia coli K-12) (UniProt P07650); assay: Inhibition of [3H]methylthymidine binding to Escherichia coli thymidine phosphorylase at 20 uM after 20 mins by scintillation counting
Thymidine phosphorylase [3] = molecular target: T1, Thymidine phosphorylase (Escherichia coli K-12, UniProt P07650); assay: Inhibition of [3H]methylthymidine binding to Escherichia coli thymidine phosphorylase after 10 mins by scintillation counting
Thymidine phosphorylase [4] = molecular target: T1, Thymidine phosphorylase; assay: Inhibition of [3H]methylthymidine binding to Escherichia coli thymidine phosphorylase after 20 mins by scintillation counting

T1 sequence (P07650 whole entry): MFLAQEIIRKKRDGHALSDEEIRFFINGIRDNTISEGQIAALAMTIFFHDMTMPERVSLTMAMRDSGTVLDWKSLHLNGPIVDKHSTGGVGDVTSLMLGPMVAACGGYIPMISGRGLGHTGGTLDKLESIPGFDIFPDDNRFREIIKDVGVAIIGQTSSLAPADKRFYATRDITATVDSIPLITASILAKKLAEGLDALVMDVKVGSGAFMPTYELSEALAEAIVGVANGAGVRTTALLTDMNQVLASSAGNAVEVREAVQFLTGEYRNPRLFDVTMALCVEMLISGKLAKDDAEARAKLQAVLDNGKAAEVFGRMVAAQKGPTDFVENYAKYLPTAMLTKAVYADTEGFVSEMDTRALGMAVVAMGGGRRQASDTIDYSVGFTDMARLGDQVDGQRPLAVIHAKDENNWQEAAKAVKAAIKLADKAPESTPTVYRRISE
Thymidine phosphorylase (Escherichia coli K-12), sequence (P07650 whole entry, looked up): as the sequence (P07650 whole entry) above

inhibition [1] [%]	inhibition [2] [%]	pIC50 (Thymidine phosphorylase [3])	pIC50 (Thymidine phosphorylase [4])	Compound
83	48	4.94		O=c1[nH]c(=O)n(CCCCCCCCP(=O)(O)O)c2[nH]ccc12
			5.17	O=c1[nH]c(=O)n(CCCCCCCCP(=O)(O)O)c2c[nH]cc12
			4.92	O=c1[nH]c(=O)c2cn(CCCCCCCCP(=O)(O)O)cc2[nH]1
			5.46	O=c1[nH]c(=O)c2cn(CCCCCCCCn3cc4[nH]c(=O)[nH]c(=O)c4c3)cc2[nH]1
